Source: patent US20090143279A1 (priority 2007, published 2009)
Like-named read-outs stand apart in the source and are kept apart here.

Legend:
reactive oxygen species = type: cell-based, mouse; conditions: for ROS levels: primary screen, in words
OXPHOS gene expression = type: cell-based, mouse; conditions: for OXPHOS expression: primary screen, in words
nuOXPHOS transcripts = type: cell-based, mouse; conditions: for nucOXPHOS Z: Table 7, C2C12 myotubes, 48 h, composite Z-score
[1] = tested on: mitochondrial membrane potential; type: cell-based, mouse
[2] = tested on: cellular dehydrogenase activity
cytochrome c = type: cell-based, mouse
mtOXPHOS transcripts = type: cell-based, mouse; conditions: Table 7; C2C12 myotubes, 48 h, composite Z-score
[3] = Table 3, differentiated C2C12 myotubes, 48 h treatment, composite Z-score vs DMSO
[4] = 20 μM, composite Z-score vs DMSO
[5] = Table 6, C2C12 myotubes, 48 h, composite Z-score
[6] = Table 5, C2C12 myotubes, 48 h, composite Z-score
[7] = retest at 20 nM to 20 μM, FIG. 6a
[8] = composite Z-score vs DMSO, Conc 20 μM

C[C@H]1C/C=C/[C@H]2[C@@H]3O[C@]3(C)[C@@H](C)[C@H]3[C@H](Cc4ccccc4)NC(=O)[C@]32OC(=O)O/C=C/[C@@](C)(O)C1=O [cytochalasin e, reference compound]
ROS Zscore (reactive oxygen species; [3]): −2.109
GEHTS_Zscore (OXPHOS gene expression; [3]): 2.827

CC(=O)CCCCn1c(=O)c2c(ncn2C)n(C)c1=O [pentoxifylline]
nucOX (nuOXPHOS transcripts; [4]): 0.292
Viability (C2C12 myotubes; [4]): 0.375
ΔΨm [1, 4]: −0.696
MTT [2, 4]: −0.600
cyt c (cytochrome c; [4]): −0.798
ROS (reactive oxygen species; [4]): 0.182
GE-HTS (OXPHOS gene expression; [4]): 0.062

CCCCCCCCCCCCCCCC[N+](C)(C)C.[Br-] [cetrimonium bromide, reference compound]
nucOXPHOS Z (nuOXPHOS transcripts): −2.70
mito-OXPHOS Z (mtOXPHOS transcripts): 1.66

COc1ccc2c(c1)OC[C@@H](Cc1ccc(OC)c(OC)c1)[C@H]2O [tetrahydrosappanone (A) trimethyl ether, reference compound]
ROS Zscore (reactive oxygen species; [5]): 0.274
GEHTS_Zscore (OXPHOS gene expression; [5]): 0.583

CC[C@H]1CN2CCc3cc(OC)c(OC)cc3[C@@H]2C[C@@H]1C[C@H]1NCCc2cc(OC)c(OC)cc21 [Emetine, reference compound]
nuOXPHOS expression (nuOXPHOS transcripts): preferentially increase
cyt c (cytochrome c): −1.644
cyt c (composite Z-score) (cytochrome c): −0.191

O=C1C(Cl)=C(Cl)C(=O)C(Cl)=C1Cl [Chloranil, reference compound]
nucOXPHOS Z (nuOXPHOS transcripts): −2.45
mito-OXPHOS Z (mtOXPHOS transcripts): 2.50

COC1=CC(=O)C[C@@H](C)[C@]12Oc1c(Cl)c(OC)cc(OC)c1C2=O [griseofulvin, reference compound]
ROS Zscore (reactive oxygen species; [6]): 0.371
ROS levels (reactive oxygen species): did not display the same decrease in ROS levels
GEHTS_Zscore (OXPHOS gene expression; [6]): 2.199
OXPHOS expression (OXPHOS gene expression): modest increase

CC[C@@]1([C@@H]2O[C@@H]([C@H]3O[C@@](O)(CO)[C@H](C)C[C@@H]3C)C[C@@H]2C)CC[C@H]([C@]2(C)CC[C@]3(C[C@H](O)[C@@H](C)[C@@H]([C@@H](C)[C@@H](OC)[C@H](C)C(=O)O)O3)O2)O1 [monensin, reference compound]
nucOXPHOS Z (nuOXPHOS transcripts): 0.70
mito-OXPHOS Z (mtOXPHOS transcripts): −4.13

sappanone (A) dimethyl ether [reference compound]
ROS Zscore (reactive oxygen species; [5]): −2.429
GEHTS_Zscore (OXPHOS gene expression; [5]): 0.524

COC(=O)Nc1nc2cc(C(=O)c3cccs3)ccc2[nH]1 [Nocodazole, methyl[5-(2-thienylcarbonyl)-1H-benzimidazol-2-yl]carbamate, reference compound]
ROS Zscore (reactive oxygen species; [3]): −1.099
ROS Zscore (reactive oxygen species; [6]): −1.099
ROS levels (reactive oxygen species): suppressing ROS levels
dose at which ROS levels decreased (reactive oxygen species; [7]): 2 µM
GEHTS_Zscore (OXPHOS gene expression; [3]): 2.675
GEHTS_Zscore (OXPHOS gene expression; [6]): 2.675
OXPHOS expression (OXPHOS gene expression): boost OXPHOS expression
dose at which OXPHOS expression increased (OXPHOS gene expression; [7]): 2 µM

dimenhydrinate
nucOX (nuOXPHOS transcripts; [8]): −0.086
ΔΨm [1, 8]: −0.890
MTT [2, 8]: −1.505
ROS (reactive oxygen species; [8]): 0.339
GE-HTS (OXPHOS gene expression; [8]): −0.225

CCCSc1ccc2nc(NC(=O)OC)[nH]c2c1 [albendazole, reference compound]
cyt c (cytochrome c): −0.280
ROS Zscore (reactive oxygen species): −1.434
GEHTS_Zscore (OXPHOS gene expression): 2.379

COc1ccc2c(c1)OCC(Cc1ccc(OC)c(OC)c1)C2=O (stereo not shown) [deoxysappanone (B) trimethyl ether, reference compound]
ROS Zscore (reactive oxygen species; [5]): 1.064
GEHTS_Zscore (OXPHOS gene expression; [5]): 0.768

COc1ccc2c(c1)c(CC(=O)O)c(C)n2C(=O)c1ccc(Cl)cc1 [Indomethacin, reference compound]
nucOXPHOS Z (nuOXPHOS transcripts): 1.32
mito-OXPHOS Z (mtOXPHOS transcripts): 2.40

CN(C)CCCN1c2ccccc2Sc2ccc(C(F)(F)F)cc21 [triflupromazine]
nucOX (nuOXPHOS transcripts): 0.404
ROS (reactive oxygen species): 1.208
GE-HTS (OXPHOS gene expression): 0.225

CC1=CC(=O)c2ccccc2C1=O [Menadione, reference compound]
nucOXPHOS Z (nuOXPHOS transcripts): −3.40
mito-OXPHOS Z (mtOXPHOS transcripts): 2.13

CC[C@@]1(O)C[C@H](O[C@H]2C[C@H](N(C)C)[C@H](O)[C@H](C)O2)c2c(cc3c(c2O)C(=O)c2c(O)ccc(O)c2C3=O)[C@H]1C(=O)OC [Pyrromycin, reference compound]
nucOXPHOS Z (nuOXPHOS transcripts): −2.89
mito-OXPHOS Z (mtOXPHOS transcripts): −2.67

COc1ccc2c(c1)OCC(=Cc1ccc(O)c(O)c1)C2=O [sappanone (A) 7-methyl ether, reference compound]
ROS Zscore (reactive oxygen species; [5]): −1.493
GEHTS_Zscore (OXPHOS gene expression; [5]): 1.410

COc1cccc2c1C(=O)c1c(O)c3c(c(O)c1C2=O)C[C@@](O)(C(=O)CO)C[C@@H]3O[C@H]1C[C@H](N)[C@H](O)[C@H](C)O1 [Doxorubicin, reference compound]
nucOXPHOS Z (nuOXPHOS transcripts): −1.85
mito-OXPHOS Z (mtOXPHOS transcripts): 2.57

C=C(C)[C@@H]1CC[C@]2(CO)CC[C@]3(C)[C@H](CC[C@@H]4[C@@]5(C)CC[C@H](O)C(C)(C)[C@@H]5CC[C@]43C)[C@@H]12 [betulin]
nucOX (nuOXPHOS transcripts): 0.598

CCOC(=O)N1CCC(=C2c3ccc(Cl)cc3CCc3cccnc32)CC1 [loratadine]
Viability (C2C12 myotubes): 0.552
ΔΨm [1]: 0.191
MTT [2]: −1.609
cyt c (cytochrome c): −0.317
ROS (reactive oxygen species): 0.764
GE-HTS (OXPHOS gene expression): −0.306
